Measurements from PubChem BioAssay AID2060901 (Molecular Pharmacology Branch, DTP, NCI, 2025).
Each block holds one compound with its values, some of them ahead of it.

Tested on: 422866-222-R5-J1-PDC complex spheroids viability
Test: Anticancer human tumor 422866-222-R5-J1-PDC patient-derived pancreatic adenocarcinoma cell line growth inhibition [RAS]
Conditions: for IC50: curve of first compound; for viability, T/C: stronger effect = lower value
How it was run: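 Multi-cell-type spheroids: tumor cells plus HUVEC endothelial cells and mesenchymal stem cells. RAS-pathway inhibitors were combined with targeted agents, each dosed in half-log steps down from clinical Cmax, or from 10 microM when Cmax was unknown.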

[1] = second compound 0.00316 µM, first compound 0.0316 µM
[2] = second compound 0.00316 µM, first compound 0.1 µM
[3] = second compound 0.00316 µM, first compound 0.316 µM
[4] = second compound 0.00316 µM, first compound 1 µM
[5] = second compound 0.00316 µM, first compound 3.16 µM
[6] = second compound 0.00316 µM, first compound 10 µM
[7] = second compound 0.01 µM, first compound 0.0316 µM
[8] = second compound 0.01 µM, first compound 0.1 µM
[9] = second compound 0.01 µM, first compound 0.316 µM
[10] = second compound 0.01 µM, first compound 1 µM
[11] = second compound 0.01 µM, first compound 3.16 µM
[12] = second compound 0.01 µM, first compound 10 µM
[13] = second compound 0.0316 µM, first compound 0.0316 µM
[14] = second compound 0.0316 µM, first compound 0.1 µM
[15] = second compound 0.0316 µM, first compound 0.316 µM
[16] = second compound 0.0316 µM, first compound 1 µM
[17] = second compound 0.0316 µM, first compound 3.16 µM
[18] = second compound 0.0316 µM, first compound 10 µM
[19] = second compound 0.1 µM, first compound 0.0316 µM
[20] = second compound 0.1 µM, first compound 0.1 µM
[21] = second compound 0.1 µM, first compound 0.316 µM
[22] = second compound 0.1 µM, first compound 1 µM
[23] = second compound 0.1 µM, first compound 3.16 µM
[24] = second compound 0.1 µM, first compound 10 µM
[25] = second compound 0.316 µM, first compound 0.0316 µM
[26] = second compound 0.316 µM, first compound 0.1 µM
[27] = second compound 0.316 µM, first compound 0.316 µM
[28] = second compound 0.316 µM, first compound 1 µM
[29] = second compound 0.316 µM, first compound 3.16 µM
[30] = second compound 0.316 µM, first compound 10 µM
[31] = second compound 1 µM, first compound 0.0316 µM
[32] = second compound 1 µM, first compound 0.1 µM
[33] = second compound 1 µM, first compound 0.316 µM
[34] = second compound 1 µM, first compound 1 µM
[35] = second compound 1 µM, first compound 3.16 µM
[36] = second compound 1 µM, first compound 10 µM
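Further: spheroids exposed to compounds for 7 days.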
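Wherever viability, T/C is given: 100% = DMSO vehicle control viability.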

IC50 (second compound 0.00316 µM): < 31.6 nM | IC50 (second compound 0.01 µM): < 31.6 nM | IC50 (second compound 0.0316 µM): < 31.6 nM | IC50 (second compound 0.1 µM): < 31.6 nM | IC50 (second compound 0.316 µM): < 31.6 nM | IC50 (second compound 1 µM): < 31.6 nM
Structure (SMILES): Cc1nc(N2CCC3(CC2)COC(C)C3N)c(CO)nc1Sc1ccnc(N)c1Cl (stereo unspecified) + C=CC(=O)N1CCN(c2nc(OCC3CCCN3C)nc3c(F)c(-c4nc(N)cc(C)c4C(F)(F)F)c(Cl)cc23)C(C)C1
viability, T/C [1]: 24.8% | viability, T/C [2]: 21.8% | viability, T/C [3]: 17.4% | viability, T/C [4]: 15% | viability, T/C [5]: 15.1% | viability, T/C [6]: 14.8% | viability, T/C [7]: 30.3% | viability, T/C [8]: 19.8% | viability, T/C [9]: 25% | viability, T/C [10]: 15.4% | viability, T/C [11]: 14.8% | viability, T/C [12]: 14.2% | viability, T/C [13]: 21.1% | viability, T/C [14]: 19.3% | viability, T/C [15]: 13.8% | viability, T/C [16]: 13.8% | viability, T/C [17]: 15.8% | viability, T/C [18]: 17.7% | viability, T/C [19]: 20% | viability, T/C [20]: 15.1% | viability, T/C [21]: 15.7% | viability, T/C [22]: 13.2% | viability, T/C [23]: 17.5% | viability, T/C [24]: 14.4% | viability, T/C [25]: 15.9% | viability, T/C [26]: 16.4% | viability, T/C [27]: 16% | viability, T/C [28]: 13.4% | viability, T/C [29]: 17.7% | viability, T/C [30]: 17.8% | viability, T/C [31]: 21.5% | viability, T/C [32]: 15.2% | viability, T/C [33]: 19.2% | viability, T/C [34]: 15.1% | viability, T/C [35]: 15.9% | viability, T/C [36]: 18.9%

IC50 (second compound 0.00316 µM): < 31.6 nM | IC50 (second compound 0.01 µM): < 31.6 nM | IC50 (second compound 0.0316 µM): < 31.6 nM | IC50 (second compound 0.1 µM): < 31.6 nM | IC50 (second compound 0.316 µM): < 31.6 nM | IC50 (second compound 1 µM): < 31.6 nM
Structure (SMILES): NC1c2ccccc2OC12CCN(c1cnc3c(N4CCCc5ncccc54)n[nH]c3n1)CC2 (stereo unspecified) + C=CC(=O)N1CCN(c2nc(OCC3CCCN3C)nc3c(F)c(-c4nc(N)cc(C)c4C(F)(F)F)c(Cl)cc23)C(C)C1
viability, T/C [1]: 21.3% | viability, T/C [2]: 17.9% | viability, T/C [3]: 18.1% | viability, T/C [4]: 16.3% | viability, T/C [5]: 13.4% | viability, T/C [6]: 16.3% | viability, T/C [7]: 20.1% | viability, T/C [8]: 17.6% | viability, T/C [9]: 13.2% | viability, T/C [10]: 16.3% | viability, T/C [11]: 15.4% | viability, T/C [12]: 16.6% | viability, T/C [13]: 20.4% | viability, T/C [14]: 18.5% | viability, T/C [15]: 13.9% | viability, T/C [16]: 14.5% | viability, T/C [17]: 15.9% | viability, T/C [18]: 14.8% | viability, T/C [19]: 18.3% | viability, T/C [20]: 15.1% | viability, T/C [21]: 15.3% | viability, T/C [22]: 12.8% | viability, T/C [23]: 16.3% | viability, T/C [24]: 14.2% | viability, T/C [25]: 18.4% | viability, T/C [26]: 16.6% | viability, T/C [27]: 14.5% | viability, T/C [28]: 13.6% | viability, T/C [29]: 14.2% | viability, T/C [30]: 12.9% | viability, T/C [31]: 18.7% | viability, T/C [32]: 14.1% | viability, T/C [33]: 16.4% | viability, T/C [34]: 15.8% | viability, T/C [35]: 14.9% | viability, T/C [36]: 15.9%

IC50 (second compound 0.00316 µM): < 3.16 nM | IC50 (second compound 0.01 µM): < 3.16 nM | IC50 (second compound 0.0316 µM): < 3.16 nM | IC50 (second compound 0.1 µM): < 3.16 nM | IC50 (second compound 0.316 µM): < 3.16 nM | IC50 (second compound 1 µM): < 3.16 nM
Structure (SMILES): Nc1ccn(C2OC(CO)C(O)C2(F)F)c(=O)n1 (stereo unspecified) + C=CC(=O)N1CCN(c2nc(OCC3CCCN3C)nc3c(F)c(-c4nc(N)cc(C)c4C(F)(F)F)c(Cl)cc23)C(C)C1
viability, T/C (second compound 0.00316 µM, first compound 0.00316 µM): 25.5% | viability, T/C (second compound 0.00316 µM, first compound 0.01 µM): 26.6% | viability, T/C [1]: 21.8% | viability, T/C [2]: 18.7% | viability, T/C [3]: 14.8% | viability, T/C [4]: 14.9% | viability, T/C (second compound 0.01 µM, first compound 0.00316 µM): 26.6% | viability, T/C (second compound 0.01 µM, first compound 0.01 µM): 22.7% | viability, T/C [7]: 21.7% | viability, T/C [8]: 15.7% | viability, T/C [9]: 15.3% | viability, T/C [10]: 17% | viability, T/C (second compound 0.0316 µM, first compound 0.00316 µM): 27.5% | viability, T/C (second compound 0.0316 µM, first compound 0.01 µM): 19.9% | viability, T/C [13]: 19.3% | viability, T/C [14]: 16.9% | viability, T/C [15]: 15.9% | viability, T/C [16]: 14.1% | viability, T/C (second compound 0.1 µM, first compound 0.00316 µM): 21.9% | viability, T/C (second compound 0.1 µM, first compound 0.01 µM): 21.6% | viability, T/C [19]: 18.6% | viability, T/C [20]: 16.4% | viability, T/C [21]: 14.8% | viability, T/C [22]: 14.6% | viability, T/C (second compound 0.316 µM, first compound 0.00316 µM): 24.8% | viability, T/C (second compound 0.316 µM, first compound 0.01 µM): 20.4% | viability, T/C [25]: 20% | viability, T/C [26]: 18.1% | viability, T/C [27]: 16.7% | viability, T/C [28]: 17.4% | viability, T/C (second compound 1 µM, first compound 0.00316 µM): 22.9% | viability, T/C (second compound 1 µM, first compound 0.01 µM): 19.7% | viability, T/C [31]: 19% | viability, T/C [32]: 14.2% | viability, T/C [33]: 18% | viability, T/C [34]: 17.4%
